Read-outs that look alike come from different tables or passages of the source.
How the values were obtained:
T. vaginalis GT3 strain = assay: In vitro susceptibility assay, T. vaginalis trophozoites; assay type: cell-based, Trichomonas vaginalis
Experimental: (§1) G. lamblia WB strain, T. vaginalis GT3 strain, and E. histolytica strain HM1-IMSS were used in all experiments, all parasitic strains were obtained from the Unidad de Investigación Médica en Enfermedades Infecciosas y Parasitarias, Hospital de Pediatría, Instituto Mexicano del Seguro Social. In vitro susceptibility assays to determine IC50 values were performed using a method previously described. For this, 4 × 10^4 G. lamblia; 6 × 10^3 E. histolytica, or 4 × 10^4 T. vaginalis trophozoites were incubated for 48 h at 37 °C with different concentrations of quinoxaline derivatives T-137 to T-170 (0.5 ng/mL to 10 μg/mL) using dimethyl sulfoxide (DMSO) (0.05%) as solvent. Metronidazole and albendazole were used as positive controls, and parasites in the medium without drugs containing DMSO (0.05%) were included as negative controls. At the end of the incubation period, trophozoites were washed and subcultured for another 48 h in a fresh medium without drugs. Then, trophozoites were counted with a haemocytometer and the IC50 was calculated by Probit analysis. Experiments were carried out in triplicate and repeated at least twice.

[1] = Cytotoxic evaluation, MTT colorimetric assay; assay type: cell-based; settings: mouse, J774.2 macrophage cell line, murine macrophages J774.2, read-out: Cytotoxicity (Macrophages J774.2) (CC50)
Experimental: (§2) The murine macrophage cell line J774.2 was maintained in culture flasks with RPMI 1640 medium supplemented with 10% FBS, and 100 U/mL antibiotic-antifungal mixture (Gibco). Cells were incubated at 37 °C with 5% CO2 and humidity. Murine macrophage cell line J774.2 is maintained at Laboratorio de Estudios Epidemiológicos, Clínicos, Diseños Experimentales e Investigación, Facultad de Ciencias Químicas, Universidad Autónoma “Benito Juárez” de Oaxaca. Macrophages were washed and viability was assessed by the MTT colorimetric assay. In a 96-well microplate, 1 × 10^5 macrophages were added per well and a dose-response assay was performed. Compounds were evaluated using serial dilutions to determine half-maximal cytotoxic concentration (CC50) values in triplicate considering 0.2% DMSO as negative control.

G. lamblia WB strain = assay: In vitro susceptibility assay, G. lamblia trophozoites; assay type: cell-based, Giardia lamblia; settings: for Selectivity index, G. lamblia versus macrophages: CC50 J774.2 / IC50 G. lamblia
Experimental: as §1

[2] = tested on: E. histolytica strain HM1-IMSS; assay: In vitro susceptibility assay, E. histolytica trophozoites; assay type: cell-based, Entamoeba histolytica; settings: for IC50: Entamoeba histolytica, 48 h, read-out: E. histolytica (IC50 nM), trophozoites, 48 h at 37 °C, subcultured 48 h, Probit analysis
Experimental: as §1

[3] = tested on: murine macrophage cell line J774.2; assay: Cytotoxic evaluation, MTT colorimetric assay; assay type: cell-based; settings: murine macrophages J774.2, read-out: Cytotoxicity (Macrophages J774.2) (CC50)
Experimental: as §2

[4] = tested on: G. lamblia trophozoites (WB strain); assay: Attachment and viability of G. lamblia trophozoites; assay type: cell-based, Giardia lamblia; settings: for Concentration at which detachment and cytotoxicity took impact: 24 h of incubation at 37 °C; for Detachment of trophozoites: cultures incubated with compound
Experimental: Cytotoxicity of a drug is not the only important characteristic to cope with the pathogenesis of G. lamblia. It is known that the attachment of the trophozoites to the microvillus border of the small intestine is a crucial step for causing disease. […] T-143 and T-146 had the highest cytotoxic effect on giardia trophozoites (Figure 2(A,B), respectively). Detachment of trophozoites in cultures incubated with T-146 or T-161 was undetectable, with their impact directly through cytotoxicity (Figure 2(B)).

recombinant GlTIM [5] = target: T1, recombinant GlTIM (Giardia intestinalis, UniProt P36186); assay: Inhibition of recombinant GlTIM enzyme activity; assay type: biochemical, Giardia lamblia
T1 construct: His-tag with TEV site (pET3a-HisTEV); made in house; host or cells: Escherichia coli BL21(DE3) pLys
T1 sequence (P36186 whole entry): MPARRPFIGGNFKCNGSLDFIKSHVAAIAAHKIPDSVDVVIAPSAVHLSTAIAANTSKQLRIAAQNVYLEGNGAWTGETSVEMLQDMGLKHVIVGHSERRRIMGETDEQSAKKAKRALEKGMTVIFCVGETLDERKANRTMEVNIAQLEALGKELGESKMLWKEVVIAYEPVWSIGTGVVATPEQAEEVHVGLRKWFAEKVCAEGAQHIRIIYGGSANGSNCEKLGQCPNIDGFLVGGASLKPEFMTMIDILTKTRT
Experimental: Escherichia coli BL21(DE3) pLys bacteria containing the plasmid pET3a-HisTEV with the gene coding for GlTIM wild type were grown in LB medium supplemented with 0.1 mg/mL ampicillin and incubated at 37 °C[40]. When the cultures reached Abs600 = 0.8, they were induced to express the recombinant enzyme using 0.4 mM IPTG and incubated overnight at 30 °C with shaking at 180 rpm. After induction and growth, the bacteria were collected by centrifugation (6500 rpm, 15 min) and suspended in 40 mL of lysis buffer (pH 8.0) containing 50 mM Tris, 50 mM NaCl, 5 mM β-mercaptoethanol, and 1 mM phenylmethylsulfonyl fluoride (PMSF). The bacterial suspension was disrupted by sonication and centrifuged at 9000 rpm for 1 h, at 4 °C. Protein purification was performed via IMAC using a Profinity Ni^2+ charged resin previously equilibrated with lysis buffer. The soluble protein fraction was mixed with the equilibrated Ni^2+ charged resin and incubated at room temperature with shaking for 30 min. Then, the column was washed with the same buffer (10 column volumes) to remove proteins without the His-tag sequence. The desired proteins were eluted with lysis buffer containing 200 mM imidazole and adjusted to pH 8.0. The purified protein was concentrated using Amicon ultrafiltration units. The purity of the enzymes was analysed via sodium dodecyl sulfate-polyacrylamide gel electrophoresis (16% SDS–PAGE gel) and stained with colloidal Coomassie Brilliant Blue. The enzyme concentration was spectrophotometrically determined (Spectrophotometer Cary 50, Varian Inc.) at 280 nm using the extinction coefficient ε280 = 26,600 M^−1 cm^−1.
(§3) For the inhibition assays, freshly purified recombinant GlTIM was incubated at 0.2 mg/mL for 2 h at 37 °C in the presence of 500 μM of each n-butyl and iso-butyl quinoxaline-7-carboxylate-1,4-di-N-oxide derivatives. After incubation, the samples were diluted, and 5 ng/mL were taken to measure their enzymatic activity. Enzyme activity was spectrophotometrically measured (Spectrophotometer Cary 50, Agilent Technologies, CA, USA) by following DHAP synthesis with a coupled system that followed the oxidation of NADH at 340 nm[41]. Results are expressed as the percent activity versus each compound at 500 μM, with the enzyme activity without any drug set as 100%. Additionally, GlTIM and HsTIM (separately) were incubated at 0.2 mg/mL for 2 h at 37 °C in the presence of 5, 10, 50, 150, 250, 350, and 500 μM of the T-167 derivative. Results are expressed as the percent activity versus T-167 concentration. All results represent the arithmetic mean of at least four independent experiments.

human TIM (HsTIM) = target: T2, human TIM (HsTIM) (Homo sapiens, UniProt P60174); assay: Inhibition of recombinant HsTIM enzyme activity; assay type: biochemical
T2 construct: His-tag with TEV site (pET3a-HisTEV); made in house; host or cells: E. coli BL21-CodonPlus (DE3)-RIL
T2 sequence (P60174 whole entry): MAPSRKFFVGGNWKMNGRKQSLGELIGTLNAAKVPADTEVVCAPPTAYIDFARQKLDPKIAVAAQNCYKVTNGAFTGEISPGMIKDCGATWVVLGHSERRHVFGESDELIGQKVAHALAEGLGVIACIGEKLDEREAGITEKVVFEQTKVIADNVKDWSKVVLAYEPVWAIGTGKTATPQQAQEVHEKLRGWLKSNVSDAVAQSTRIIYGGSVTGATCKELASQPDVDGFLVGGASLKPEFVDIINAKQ
Experimental: Expression of human TIM (HsTIM) was performed by using the E. coli BL21-CodonPlus (DE3)-RIL strain (Stratagene) containing the plasmid pET3a-HisTEV with the gene coding for HsTIM. Expression and purification steps were as above-mentioned for GlTIM. The enzyme concentration was spectrophotometrically determined (Spectrophotometer Cary 50, Varian Inc.) at 280 nm using the extinction coefficient ε280 = 33,460 M^−1 cm^−1.
as §3

[6] = target: T3, recombinant E. histolytica thioredoxin reductase (EhTRXR) (Entamoeba histolytica, UniProt C4LW95); parameters: method as in earlier work; settings: ref 34 (Sóto-Sánchez et al. 2020); cited from earlier work
T3 construct: His-tag (pET28a) (N); made in house; host or cells: E. coli BL21 (DE3)
T3 sequence (C4LW95 1-314): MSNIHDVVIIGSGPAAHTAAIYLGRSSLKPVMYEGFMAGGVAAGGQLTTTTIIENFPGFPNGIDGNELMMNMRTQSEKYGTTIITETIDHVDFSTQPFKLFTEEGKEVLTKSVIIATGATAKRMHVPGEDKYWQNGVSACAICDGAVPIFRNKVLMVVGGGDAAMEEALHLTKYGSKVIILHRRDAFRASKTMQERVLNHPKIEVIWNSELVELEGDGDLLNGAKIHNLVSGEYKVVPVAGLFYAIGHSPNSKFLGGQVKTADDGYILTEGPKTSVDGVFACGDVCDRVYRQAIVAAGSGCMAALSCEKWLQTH

recombinant GlTIM [7] = target: T1, recombinant GlTIM; parameters: method as in PMID 25223993; settings: cited from earlier work
[8] = target: T3, recombinant E. histolytica thioredoxin reductase (EhTRXR); assay: Inhibition of EhTrxR DTNB reductase activity; assay type: biochemical; settings: for inhibition at 100 µM: pH 7, read-out: EhTrxR inhibitory effect (disulphide reductase activity)
Experimental: Recombinant E. histolytica thioredoxin reductase (EhTRXR) was expressed in E. coli BL21 (DE3) as His-tag (N-terminal) recombinant proteins using pET28a vector, and it was purified using IMAC as previously described. 5,5′-Dithiobis(2-nitrobenzoic acid) (DTNB) reductase activity was measured by monitoring the production of thionitrobenzoate at 405 nm in a reaction mixture comprising 50 mM potassium phosphate, pH 7.0, 2 mM EDTA, 300 µM NADPH, 5 mM DTNB, and 0.1 µM EhTRXR. Activity was calculated using the molar extinction coefficient at 405 nm of 13.6 mM^−1cm^− 1 and considering that 1 mol of NADPH yields 2 mol of thionitrobenzoate. The enzyme assays were performed at 30 °C, in a final volume of 50 μL, and using a Multiskan Ascent one-channel vertical light path filter photometer (Thermo Electron Co.). All results represent the arithmetic mean of at three independent experiments.

[9] = Trichomonas vaginalis, GT3, 48 h, read-out: T. vaginalis (IC50 nM), trophozoites, 48 h at 37 °C, subcultured 48 h, Probit analysis
[10] = Giardia duodenalis, 48 h, read-out: G. lamblia (IC50 nM), trophozoites, 48 h at 37 °C, subcultured 48 h, Probit analysis
[11] = read-out: T. vaginalis (IC50 nM), trophozoites, 48 h at 37 °C, subcultured 48 h, Probit analysis
[12] = read-out: G. lamblia (IC50 nM), trophozoites, 48 h at 37 °C, subcultured 48 h, Probit analysis

Row | SMILES | IC50 (T. vaginalis GT3 strain; [9]) | IC50 (G. lamblia WB strain; [10]) | IC50 [2] | IC50 (T. vaginalis GT3 strain; [11]) | CC50 [3] | IC50 (G. lamblia WB strain; [12]) | Concentration at which detachment and cytotoxicity took impact [4] | inhibition at 500 µM (recombinant GlTIM [5]; 500 µM compound, 2 h at 37 °C) | inhibition at 100 µM [8] | other results
1 | CC(=O)c1c(Nc2ccc(C)cc2C)[n+]([O-])c2ccc(C(=O)OCC(C)C)cc2[n+]1[O-] [Compound T-170] | 130 ± 8.27 nM | 109 ± 3.55 nM | 33.1 ± 2.36 nM |  |  |  |  |  |  | CC50 [1]: > 200 µM
2 | CC(=O)c1c(C(F)(F)F)[n+]([O-])c2ccc(C(=O)OCC(C)C)cc2[n+]1[O-] [Compound T-167] | < 90 nM | < 30 nM | 64.5 ± 5.38 nM | 90 ± 6.72 nM | 25.4 ± 0.0815 µM | 25.5 ± 1.34 nM | 25 µM | 99.7% |  | Selectivity index, G. lamblia versus macrophages (G. lamblia WB strain): 994 fold; inhibition at 10 µM (recombinant GlTIM [5]; 10 µM T-167, 2 h at 37 °C): > 20%; GlTIM inhibition (recombinant GlTIM [5]; 500 µM compound, 2 h at 37 °C): wholly inhibited; GlTIM residual activity (recombinant GlTIM [5]; 50 to 350 µM T-167): ~25%; Decrease of GlTIM enzyme activity (recombinant GlTIM [5]; <10 to 50 µM T-167): above 70%; Effect on HsTIM enzyme activity (human TIM (HsTIM); 10 µM T-167, 2 h at 37 °C): unaffected; HsTIM retained activity (human TIM (HsTIM); 500 µM T-167, when GlTIM activity is completely depleted): more than 75%; HsTIM loss of activity (human TIM (HsTIM); 50 to 350 µM T-167): no more than 10%
3 | CCOC(=O)c1c(C(F)(F)F)[n+]([O-])c2ccc(C(=O)OC(C)C)cc2[n+]1[O-] [Compound T-116] |  |  |  |  |  |  |  |  |  | IC50 [6]: 28 µM
4 | COc1ccc2[nH]c([S+]([O-])Cc3ncc(C)c(OC)c3C)nc2c1 (stereo not drawn) [omeprazole] |  |  |  |  |  |  |  |  |  | Concentration attaining 70% inhibition of GlTIM (recombinant GlTIM [7]): about 300 µM; Concentration wholly inhibiting GlTIM activity (recombinant GlTIM [7]): 750 µM
5 | CCCCOC(=O)c1ccc2c(c1)[n+]([O-])c(C(=O)OCC)c(C(F)(F)F)[n+]2[O-] [Compound T-146] | ~100 nM | < 30 nM | 64.7 ± 3.73 nM | 102 ± 2.49 nM | > 200 µM | 26.1 ± 6.22 nM | 25 µM | 37.3% | 50 to 75% | Detachment of trophozoites [4]: undetectable
6 | Cc1c(C(=O)Nc2ccc(Cl)cc2)[n+]([O-])c2cc(C(=O)OCC(C)C)ccc2[n+]1[O-] [Compound T-161] | 137 ± 3.5 nM | 120 ± 1.16 nM | 29.1 ± 3.5 nM |  |  |  | 25 µM | 19.7% | > 75% | Detachment of trophozoites [4]: undetectable; IC50 ([8]; DTNB reductase activity, 30 °C, pH 7.0): 18 µM
7 | CC(=O)c1c(-c2ccccc2)[n+]([O-])c2ccc(C(=O)OCC(C)C)cc2[n+]1[O-] [Compound T-168] | 150 ± 14.5 nM | 39.5 ± 2.63 nM | 50 ± 2.63 nM |  |  |  |  |  |  | CC50 [1]: 28.5 ± 1.69 µM
8 | CCCCOC(=O)c1ccc2c(c1)[n+]([O-])c(C(=O)Nc1ccc(Cl)cc1)c(C)[n+]2[O-] [Compound T-143] | < 90 nM | < 30 nM | 15.1 ± 2.33 nM | 45.2 ± 6.99 nM | 50.3 ± 2.8 µM | 29.1 ± 5.83 nM | 25 µM | 43.7% | 50 to 75% | Selectivity index, T. vaginalis versus macrophages (T. vaginalis GT3 strain; CC50 J774.2 / IC50 T. vaginalis): 1112 fold; Selectivity index, G. lamblia versus macrophages (G. lamblia WB strain): 1726 fold; Selectivity index, E. histolytica versus macrophages ([2]; CC50 J774.2 / IC50 E. histolytica): 3321 fold
